From patent publication US11787762B2, “Tetralin and tetrahydroquinoline compounds as inhibitors of HIF-2alpha” (ARCUS BIOSCIENCES, INC., priority 2020, dated 2023)

Legend:
[1] = target: T1, Histidine tagged HIF-2α protein containing PAS-B domain (240-350) (Homo sapiens, UniProt Q99814); assay: HIF-2α Scintillation Proximity Assay (SPA) binding assay; settings: 50 nM HIF-2α protein, 25 nM 3H-tracer
T1 construct: HIF-2α protein containing PAS-B domain (240-350); made in house
Description: HIF-2α Scintillation Proximity Assay (SPA) Binding Assay:
Tritium labeled compound N-(3-chlorophenyl)-4-nitro-2,1,3-benzoxadiazol-5-amine was obtained from American Radiolabeled Chemicals Inc. and copper chelate PVT SPA beads were from PerkinElmer (Cat #RPNQ0095). Histidine tagged HIF-2α protein containing PAS-B domain (240-350) was prepared and purified in house.
Compounds solubilized in DMSO were dispensed into a white 384-well polystyrene non-binding flat clear bottom plate (Greiner Bio-One, Cat #781903) using an HP D300 dispenser. Ten microliters of HIS-tagged HIF-2α protein in buffer (25 mM Tris-HCl, pH 7.4, 150 mM NaCl, 0.15% BSA and 0.001% Tween 20) was added to the compound wells and allowed to incubate for 1 hour at room temperature. Ten microliters of SPA bead mix were added to the wells and incubated for an additional 45 minutes, followed by 10 ul of ^3H-tracer solution. Final assay conditions comprised 50 nM HIF-2α protein, 25 nM radiolabeled tracer and 3 ug beads per well with compounds in 2% DMSO. The plate was read using a MicroBeta Microplate Counter (PerkinElmer) for luminescence detection. The IC50 values of the test compounds were determined from compound dose response curves fitted using a standard four parameter fit equation and are reported in Table 1, Table 2, and Table 3.

[2] = target: T2, HIF-2α (Homo sapiens, UniProt Q99814); assay: HIF-2α luciferase reporter assay in HIF-Luc-786-O cells; type: cell-based
T2 construct: host or cells: 786-O cells stably transduced with Cignal Lenti HIF Luc Reporter (only the reporter was introduced, not HIF-2α)
How it was run: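 Luminescence (ONE-Glo) read after 20 h compound incubation, top concentration 50 uM, 1% DMSO, 20,000 HIF-Luc-786-O cells per well. Activity scaled between DMSO maximum and no-cell baseline; four-parameter dose-response fits yielded IC50.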

T2 sequence (Q99814 whole entry): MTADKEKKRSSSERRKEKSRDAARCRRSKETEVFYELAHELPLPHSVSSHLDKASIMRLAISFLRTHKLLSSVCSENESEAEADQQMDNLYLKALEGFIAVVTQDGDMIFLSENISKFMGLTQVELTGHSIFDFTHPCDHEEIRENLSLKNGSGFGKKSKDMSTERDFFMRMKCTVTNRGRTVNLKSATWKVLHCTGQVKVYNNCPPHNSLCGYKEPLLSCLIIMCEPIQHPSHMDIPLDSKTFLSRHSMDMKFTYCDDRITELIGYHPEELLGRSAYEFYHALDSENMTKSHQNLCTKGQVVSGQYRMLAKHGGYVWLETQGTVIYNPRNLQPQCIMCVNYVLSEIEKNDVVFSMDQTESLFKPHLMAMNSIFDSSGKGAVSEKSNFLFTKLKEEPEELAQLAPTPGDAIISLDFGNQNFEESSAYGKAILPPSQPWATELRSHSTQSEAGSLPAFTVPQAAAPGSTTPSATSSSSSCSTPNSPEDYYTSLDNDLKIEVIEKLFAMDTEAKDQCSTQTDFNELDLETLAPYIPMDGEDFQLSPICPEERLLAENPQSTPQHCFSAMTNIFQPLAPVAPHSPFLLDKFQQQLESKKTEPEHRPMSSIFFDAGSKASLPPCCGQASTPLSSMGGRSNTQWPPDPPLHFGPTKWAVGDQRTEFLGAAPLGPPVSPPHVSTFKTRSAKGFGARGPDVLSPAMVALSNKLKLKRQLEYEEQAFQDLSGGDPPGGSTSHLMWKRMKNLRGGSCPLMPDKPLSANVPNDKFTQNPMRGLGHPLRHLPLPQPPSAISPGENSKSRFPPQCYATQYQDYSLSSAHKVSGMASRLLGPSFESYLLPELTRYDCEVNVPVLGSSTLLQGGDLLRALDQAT
T1 sequence (Q99814 240-350): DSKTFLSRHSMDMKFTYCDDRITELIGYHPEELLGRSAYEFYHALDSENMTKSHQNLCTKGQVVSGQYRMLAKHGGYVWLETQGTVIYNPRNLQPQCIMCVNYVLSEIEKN

SMILES	IC50 ([1]; Table 1) [nM]	IC50 ([2]; Table 1, 20 hours incubation) [nM]	other results
O=Cc1c(S(=O)(=O)C(F)(F)F)ccc(N2CCCc3cc(F)cc(F)c32)c1Cl [Example 68]	> 1000	> 1000	
CS(=O)(=O)c1ccc(N2CCCc3cc(F)cc(Cl)c32)c2c1[C@H](O)[C@H](F)C2 [Example 47]	100 to 1000	> 1000	
Cc1cn[nH]c1-c1ccc([C@H]2CC[C@H](F)c3cc(F)cc(C#N)c32)c2c1[C@H](O)C(F)(F)C2 [Example 154, (5S,8R)-8-[(1S)-2,2-difluoro-1-hydroxy-7-(4-methyl-1H-pyrazol-5-yl)-1,3-dihydroinden-4-yl]-3,5-difluoro-5,6,7,8-tetrahydronaphthalene-1-carbonitrile]			IC50 ([1]; Table 3): < 100 nM; IC50 ([2]; Table 3, 20 hours incubation): < 100 nM
Cn1ncnc1-c1ccc([C@H]2CC[C@H](F)c3cc(F)cc(C#N)c32)c2c1[C@H](O)C(F)(F)C2 [Example 174, (5S,8R)-8-[(1S)-2,2-difluoro-1-hydroxy-7-(2-methyl-1,2,4-triazol-3-yl)-1,3-dihydroinden-4-yl]-3,5-difluoro-5,6,7,8-tetrahydronaphthalene-1-carbonitrile]			IC50 ([1]; Table 3): < 100 nM; IC50 ([2]; Table 3, 20 hours incubation): < 100 nM
CC[C@@H]1CCN(c2ccc(S(=O)(=O)C(F)(F)F)c3c2C[C@@H](F)[C@H]3O)c2c(F)cc(F)cc21 [Example 45]	100 to 1000	> 1000	
CS(=O)(=O)c1ccc([C@@H]2CCCc3cc(F)cc(F)c32)c2c1[C@H](O)[C@H](F)C2 [Example 3, (1S,2R)-4-[(1S)-6,8-difluoro-1,2,3,4-tetrahydronaphthalen-1-yl]-2-fluoro-7-methanesulfonyl-2,3-dihydro-1H-inden-1-ol]	> 1000	> 1000	
CS(=O)(=O)c1ccc(N2CCCc3cc(F)cc(C#N)c32)c2c1[C@H](O)C(F)(F)C2 (racemic) [Example 31]	100 to 1000	100 to 1000	
O=S(=O)(c1ccc(N2CCC(CO)c3cc(F)cc(F)c32)c2c1[C@H](O)[C@H](F)C2)C(F)(F)F (stereo partly drawn) [Example 27]	100 to 1000	100 to 1000	
O=S(=O)(c1ccc([C@@H]2CCCc3cc(F)cc(F)c32)c2c1[C@H](O)[C@H](F)C2)C(F)(F)F [Example 2b, (1S,2R)-4-[S-6,8-difluoro-1,2,3,4-tetrahydronaphth-1-yl]-2-fluoro-7-(trifluoromethylsulfonyl)-1-indanol]	100 to 1000	100 to 1000	
CC1(O)c2c(S(C)(=O)=O)ccc([C@H]3CCCc4cc(F)cc(F)c43)c2CC1(F)F (stereo partly drawn) [Example 113]	> 1000	> 1000	
CS(=O)(=O)c1ccc(N2CCCc3cc(F)cc(C#N)c32)c(Cl)c1C#N [Example 11, 1-(2-Chloro-3-cyano-4-methanesulfonylphenyl)-6-fluoro-1,2,3,4-tetrahydroquinoline-8-carbonitrile]	100 to 1000	100 to 1000	
O=S(=O)(c1ccc(N2CCCc3cc(F)cc(F)c32)c2c1[C@H](O)[C@@H](F)C2)C(F)(F)F [Example 54]	> 1000	> 1000	
O=S(=O)(c1ccc([C@H]2CCCc3cc(F)cc(F)c32)c2c1[C@H](O)[C@H](F)C2)C(F)(F)F [Example 2a, (1S,2R)-4-[R-6,8-difluoro-1,2,3,4-tetrahydronaphth-1-yl]-2-fluoro-7-(trifluoromethylsulfonyl)-1-indanol]	< 100	< 100	
N#Cc1cc(F)cc2c1N(c1ccc(C(F)(F)F)c(F)c1CCO)CCC2 [Example 44]	> 1000	> 1000	
N#Cc1cc(F)cc2c1N(c1cnc(C(F)(F)F)c(F)c1Cl)CCC2 [Example 26]	100 to 1000	100 to 1000	
COC1CCN(c2ccc(C(C)(F)F)c(F)c2C#N)c2c(C#N)cc(F)cc21 (stereo not drawn) [Example 132, 1-[2-Cyano-4-(1,1-difluoroethyl)-3-fluorophenyl]-6-fluoro-4-methoxy-3,4-dihydro-2H-quinoline-8-carbonitrile]			IC50 ([1]; Table 2): < 100 nM; IC50 ([2]; Table 2, 20 hours incubation): < 100 nM
N#Cc1cc(C(F)(F)F)ncc1N1CCCc2cc(F)cc(F)c21 [Example 86]	> 1000	> 1000	
CS(=O)(=O)c1ccc([C@@H]2CCCc3cc(F)cc(C#N)c32)c2c1[C@H](O)[C@@H](F)CC2 [Example 105]	> 1000	> 1000	

SMILES	IC50 ([1]; Table 1) [nM]	IC50 ([2]; Table 1, 20 hours incubation) [nM]	other results
N#Cc1cc(F)cc2c1N(c1ccc(S(=O)(=O)C(F)(F)F)c3ncccc13)CCC2 [Example 40]	100 to 1000	> 1000	
CS(=O)(=O)c1ccc(N2CCOc3cc(F)cc(C#N)c32)c2c1[C@H](O)[C@H](F)C2 [Example 20, 7-fluoro-4-((1S,2R)-2-fluoro-1-hydroxy-7-(methylsulfonyl)-2,3-dihydro-1H-inden-4-yl)-3,4-dihydro-2H-benzo[b] [1,4]oxazine-5-carbonitrile]	> 1000	> 1000	
Cn1nccc1-c1ccc([C@H]2CC[C@H](F)c3cc(F)cc(C#N)c32)c2c1[C@H](O)[C@H](F)C2 [Example 157, (5S,8R)-3,5-difluoro-8-[(1S,2R)-2-fluoro-1-hydroxy-7-(2-methylpyrazol-3-yl)-2,3-dihydro-1H-inden-4-yl]-5,6,7,8-tetrahydronaphthalene-1-carbonitrile]			IC50 ([1]; Table 3): < 100 nM; IC50 ([2]; Table 3, 20 hours incubation): < 100 nM
N#Cc1cc(F)cc2c1N(c1ccc(C(F)(F)F)c(C#N)c1Cl)CCC2 [Example 28]	100 to 1000	100 to 1000	
CC(O)(c1ccc(N2CCCc3cc(F)cc(F)c32)c([N+](=O)[O-])c1)C(F)(F)F (stereo not drawn) [Example 87]	> 1000	> 1000	
N#Cc1cc(F)cc2c1[C@@H](c1ccc(C(F)(F)F)c3c1C(=O)OC3)CC[C@@H]2F [Example 142, (5S,8R)-3,5-Difluoro-8-[3-oxo-7-(trifluoromethyl)-1,3-dihydro-2-benzofuran-4-yl]-5,6,7,8-tetrahydronaphthalene-1-carbonitrile]			IC50 ([1]; Table 2): < 100 nM; IC50 ([2]; Table 2, 20 hours incubation): < 100 nM
O=[N+]([O-])c1cc(C(O)(C(F)(F)F)C(F)(F)F)ccc1N1CCCc2cc(F)cc(F)c21 [Example 70]	> 1000	> 1000	
N#Cc1cc(F)cc2c1N(c1cnc(C(F)(F)F)c(F)c1Cl)CCC2(F)F [Example 127, 1-[4-Chloro-5-fluoro-6-(trifluoromethyl)pyridin-3-yl]-4,4,6-trifluoro-2,3-dihydroquinoline-8-carbonitrile]			IC50 ([1]; Table 2): < 100 nM; IC50 ([2]; Table 2, 20 hours incubation): < 100 nM
N#Cc1cc(F)cc2c1N(c1ccc(S(=O)(=O)C(F)(F)F)c3c1C[C@@H](F)[C@H]3O)CCO2 [Example 19, 7-fluoro-4-((1S,2R)-2-fluoro-1-hydroxy-7-((trifluoromethyl)sulfonyl)-2,3-dihydro-1H-inden-4-yl)-3,4-dihydro-2H-benzo[b][1,4]oxazine-5-carbonitrile]	100 to 1000	100 to 1000	
N#Cc1cc(F)cc2c1[C@@H](c1ccc(-c3cccnc3N)c3c1CC(F)(F)[C@H]3O)CC[C@@H]2F [Example 153, (5S,8R)-8-[(1S)-7-(2-aminopyridin-3-yl)-2,2-difluoro-1-hydroxy-1,3-dihydroinden-4-yl]-3,5-difluoro-5,6,7,8-tetrahydronaphthalene-1-carbonitrile]			IC50 ([1]; Table 3): < 100 nM; IC50 ([2]; Table 3, 20 hours incubation): < 100 nM
O=S(=O)(c1ccc([C@]2(O)CCCc3cc(F)cc(F)c32)c2c1[C@H](O)[C@H](F)C2)C(F)(F)F [Example 109]	> 1000	> 1000	
CS(=O)(=O)c1ccc(C2CCCc3cc(F)cc(F)c32)c2cccnc12 (stereo not drawn) [Example 110]	> 1000	> 1000	
O=Cc1c(S(=O)(=O)C(F)(F)F)ccc(N2CCCc3cc(F)cc(F)c32)c1Cl [Example 69]	100 to 1000	> 1000	
O=[N+]([O-])c1cc(S(=O)(=O)C(F)(F)F)ccc1N1CCOc2cc(F)cc(F)c21 [Example 73]	> 1000	> 1000	
O=[N+]([O-])c1cc(S(=O)(=O)C(F)(F)F)ccc1N1CCCc2c(F)cc(F)cc21 [Example 64]	> 1000	> 1000	
Cn1nccc1-c1ccc([C@H]2CC[C@H](F)c3cc(F)cc(C#N)c32)c2c1[C@H](O)C(F)(F)C2 [Example 143, (5S,8R)-8-[(1S)-2,2-difluoro-1-hydroxy-7-(2-methylpyrazol-3-yl)-1,3-dihydroinden-4-yl]-3,5-difluoro-5,6,7,8-tetrahydronaphthalene-1-carbonitrile]			IC50 ([1]; Table 2): < 100 nM; IC50 ([2]; Table 2, 20 hours incubation): < 100 nM
CS(=O)(=O)c1ccc(N2CCCc3cc(F)cc(F)c32)c(C(F)F)c1C#N [Example 53]	> 1000	> 1000	
CS(=O)(=O)c1ccc([C@H]2CCCc3cc(F)cc(C#N)c32)c2c1[C@H](O)[C@@H](F)CC2 [Example 94]	100 to 1000	100 to 1000	
